Laboratory results from article PMC8654832 (Scientific Reports, 2021).
Where two headings read alike, the source gives them in different places.

Assays:
[1] = molecular target: T1, catalytic subunit of human protein kinase CK2 (hCK2α) (Homo sapiens, UniProt P68400); set-up: made in house; host or cells: Escherichia coli BL21(DE3), plasmid pET28; conditions: DSF, binding to hCK2α, cited from earlier work
hCK2α = molecular target: T2, hCK2α (Homo sapiens, UniProt P68400); experiment: In vitro inhibition of hCK2α, ADP-Glo kinase assay; assay type: biochemical; conditions: 10 μM ATP, 10 μM peptide […], 20 min at 30 °C
T2 construct: made in house; host or cells: Escherichia coli BL21(DE3), plasmid pET28
T2 sequence (P68400 whole entry): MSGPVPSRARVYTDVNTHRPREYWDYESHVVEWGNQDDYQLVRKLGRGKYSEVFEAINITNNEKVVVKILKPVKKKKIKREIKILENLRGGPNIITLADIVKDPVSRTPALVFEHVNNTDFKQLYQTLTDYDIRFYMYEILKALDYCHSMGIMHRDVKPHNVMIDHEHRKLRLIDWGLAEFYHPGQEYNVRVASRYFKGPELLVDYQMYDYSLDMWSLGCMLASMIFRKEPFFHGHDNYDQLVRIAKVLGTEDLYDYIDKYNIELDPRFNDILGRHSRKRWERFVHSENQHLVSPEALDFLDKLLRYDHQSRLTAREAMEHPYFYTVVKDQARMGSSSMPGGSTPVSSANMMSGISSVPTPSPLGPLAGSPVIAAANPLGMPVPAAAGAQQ
Experimental: The compound inhibitory activity was monitored based on the luminescence measured with the SpectraMax iD3 Multi-Mode Microplate Reader (Molecular Devices, San Jose, CA, USA), using the previously described method with the aid of ADP-Glo kinase assay (Promega, Walldorf, Germany)[35]. The measurements were carried in 96-well plate in volume of 25 μl in 20 mM Tris–HCl buffer (pH 7.5), containing 100 ng of hCK2α (1 μl), 10 μM CK2 substrate peptide […] (Biaffin GmbH & Co KG), 10 μM ATP, 20 mM MgCl2 and 2.5 μl of ligand serially diluted in DMSO. The reaction was initiated by adding the enzyme and kept going for 20 min at 30 °C.

[2] = molecular target: T1, catalytic subunit of human protein kinase CK2 (hCK2α); experiment: Isothermal titration calorimetry (ITC), reverse mode
[3] = molecular target: T1, catalytic subunit of human protein kinase CK2 (hCK2α); experiment: Microscale thermophoresis (MST) pseudo-titration; assay type: binding; set-up: made in house; host or cells: Escherichia coli BL21(DE3), plasmid pET28
Experimental: Samples of protein (50 nM in 25 mM Hepes buffer pH 8 with 0.5 M NaCl and 1%DMSO content v/v) labeled with Monolith His-Tag Labeling Kit RED-tris-NTA kit (NanoTemper Technologies) were prepared with varying ligand concentration according to previously described protocol. The measurements were performed using Monolith NT.115 (NanoTemper Technologies) apparatus in standard capillaries (Nanotemper Technologies). For each ligand six independent pseudo-titration experiments, each with 16 ligand dilutions, were performed. […] The model of two independent binding sites, implemented in origin, has been already described and tested. It is worth noting that the used method of data treatment goes beyond the standard MST software capabilities.

[4] = system: HCT116 (colorectal carcinoma); experiment: Cell viability, MTT assay; conditions: read-out: Cell viability data, IC50
[5] = system: A-431 (epidermoid carcinoma); experiment: Cell viability, MTT assay; conditions: read-out: Cell viability data, IC50
[6] = system: HEPG2 (hepatocellular carcinoma); experiment: Cell viability, MTT assay; conditions: read-out: Cell viability data, IC50
[7] = system: HCT116p53-/- (colorectal carcinoma); experiment: Cell viability, MTT assay; conditions: 72 h, read-out: Cell viability data, IC50
[8] = system: mitochondrial inner membrane potential (ΔΨ); experiment: Mitochondrial inner membrane potential, Rhodamine 123 fluorescence quenching in isolated mitochondria; conditions: for ligand concentration at which the membrane potential is almost fully uncoupled / ligand concentration at which relative fluorescence c.a. 0.95 was reached: Rhodamine 123, yeast mitochondria; for ligand concentration required to recover 50% of the initial fluorescence drop: Rhodamine 123, yeast mitochondria energized with EtOH, normalized to CCCP; for ligand concentration at which relative fluorescence c.a. 0.95 was reached: 1 = fully uncoupled (CCCP)
From the text: In response to variations in ΔΨ this dye accumulates proportionally inside the mitochondrial matrix, where its fluorescence is quenched, thus fluorescence changes reflect the changes in the IM potential[33],[34]. […] All the data were normalized relative to the fluorescence intensity after addition CCCP (set to 1).
To quantify the effect of ligand addition we have compared the ligand concentrations required to recover 50% of the initial fluorescence drop (dotted line), i.e. the average of value after addition of EtOH and fully decoupled ΔΨ.
At the end of each experiment the carbonyl cyanide-m-chlorophenyl hydrazone (CCCP, the IM potential uncoupler) was added at 4 μM for the normalization.

[9] = Dynamic light scattering (DLS), aggregation in aqueous medium; assay type: physicochemical; conditions: 25 mM Tris–HCl pH 8, 0.5 M NaCl, 2% DMSO, 25 °C
Experimental: Experiments were carried out at 25 °C with the DynaPro NanoStar 192-DPN apparatus (Wyatt Technology) equipped with 661 nm laser. The autocorrelation function for the light scattered by solute placed in Eppendorf disposable cuvettes (50–2000 μl) was measured in the range of 0.5 μs– 0.1 s at solute concentration for which short-time ACF signal approached 0.2. Solutions with 2% (v/v) DMSO content were prepared in 25 mM Tris–HCl (pH 8, 0.5 M NaCl) filtered with 220 nm pore size syringe filter. All samples were centrifuged (9000 g) for 3 min immediately before the experiment.

[10] = second, weak site (solvent exposed region at alpha/beta interface), read-out: Kd2
[11] = strongly binding site (ATP-binding site), pH 8, 0.5 M NaCl, 1% DMSO, read-out: Kd1

T1 sequence (P68400 whole entry): as above

Ic1cc2nn[nH]c2cc1I [HIIH, 5,6-diiodo-1H-benzotriazole]
ΔTm ([1]; literature data ref 20): 8.3 ± 0.1[20] K
IC50 (hCK2α): 780 ± 290 nM
Kd [2]: 22 ± 4 nM
Kd [3, 10]: 374 ± 83 nM
Kd [3, 11]: 15 ± 7 nM
IC50 ([4]; Homo sapiens, HCT-116, 72 h): 6100 ± 1300 nM
IC50 ([5]; Homo sapiens, A-431, 72 h): 5300 ± 700 nM
IC50 ([6]; Homo sapiens, HepG2, 72 h): 3300 ± 400 nM
IC50 ([7]; Homo sapiens): 9400 ± 1400 nM
ligand concentration at which the membrane potential is almost fully uncoupled [8]: ~15 µM
ligand concentration required to recover 50% of the initial fluorescence drop [8]: > 5 µM
ligand concentration at which relative fluorescence c.a. 0.95 was reached [8]: ~12 µM

Brc1c(I)c(I)c(Br)c2[nH]nnc12 [BIIB, 4,7-dibromo-5,6-diiodo-1H-benzotriazole]
ΔTm ([1]; literature data ref 20): 10.8 ± 0.1[20] K
IC50 (hCK2α): 230 ± 150 nM
Kd [2]: 1.3 ± 1.4 nM
ΔS1 ([2]; ITC, 25 °C, strongly binding site): 123 ± 10 J/mol/K
ΔS2 ([2]; ITC, second site): 93 ± 5 J/mol/K
Kd ([2]; read-out: Kd2, ITC, second site (solvent exposed region at alpha/beta interface)): 82 ± 42 nM
Kd [3, 10]: 43 ± 22 nM
Kd [3, 11]: 3 ± 6 nM
IC50 ([4]; Homo sapiens, HCT-116, 72 h): 1800 ± 300 nM
IC50 ([5]; Homo sapiens, A-431, 72 h): 2200 ± 300 nM
IC50 ([6]; Homo sapiens, HepG2, 72 h): 1500 ± 300 nM
solute concentration at which the similar ACF distribution (nano-aggregates, radius 50–100 nm) was observed [9]: 40 µM
IC50 ([7]; Homo sapiens): 2500 ± 200 nM
ligand concentration required to recover 50% of the initial fluorescence drop [8]: less than 2 µM
ligand concentration at which relative fluorescence c.a. 0.95 was reached [8]: ~4 µM

Brc1c(Br)c(Br)c2[nH]nnc2c1Br [TBBt, 4,5,6,7-tetrabromo-1H-benzotriazole]
IC50 ([4]; Homo sapiens, HCT-116, 72 h): 23000 ± 9000 nM
IC50 ([5]; Homo sapiens, A-431, 72 h): 7800 ± 1200 nM
IC50 ([6]; Homo sapiens, HepG2, 72 h): 13000 ± 2000 nM
IC50 ([7]; Homo sapiens): 48000 ± 18000 nM

N.N.[Cl][Pt][Cl] [cisPt, cisplatin]
IC50 ([4]; HCT116, MTT, 72 h, fitted to restricted low-concentration data): 4700 ± 600 nM
IC50 ([5]; A-431, MTT, 72 h, fitted to restricted low-concentration data): 2020 ± 60 nM
IC50 ([6]; HEPG2, MTT, 72 h, fitted to restricted low-concentration data): 2430 ± 140 nM
IC50 ([7]; HCT116p53-/-, MTT, fitted to restricted low-concentration data): 2940 ± 130 nM

Brc1cc2nn[nH]c2cc1Br [HBBH, 5,6-dibromo-1H-benzotriazole, reference compound]
ΔTm ([1]; literature data ref 18): 7.4 ± 0.1[18] K
IC50 (hCK2α): 1190 ± 530 nM
Kd [2]: 34 ± 4 nM
Kd [3, 10]: 327 ± 95 nM
Kd [3, 11]: 29 ± 13 nM
IC50 ([4]; Homo sapiens, HCT-116, 72 h): 19000 ± 6000 nM
IC50 ([5]; Homo sapiens, A-431, 72 h): 12000 ± 2000 nM
IC50 ([6]; Homo sapiens, HepG2, 72 h): 18000 ± 4000 nM
solute concentration at which the similar ACF distribution (nano-aggregates, radius 50–100 nm) was observed [9]: 160 µM
IC50 ([7]; Homo sapiens): 13000 ± 3000 nM
ligand concentration at which the membrane potential is almost fully uncoupled [8]: ~15 µM
ligand concentration required to recover 50% of the initial fluorescence drop [8]: > 5 µM
ligand concentration at which relative fluorescence c.a. 0.95 was reached [8]: ~12 µM
